Data: PMC9241695, “Selective Metal Chelation by a Thiosemicarbazone Derivative Interferes with Mitochondrial Respiration and Ribosome Biogenesis in Candida albicans” (Microbiology Spectrum, 2022)
≈ marks a conversion by molar mass, not a printed value.

Key:
C. albicans SC5314 [1] = experiment: Antifungal susceptibility testing, microbroth dilution MIC; type: cell-based; details: Candida albicans, SC5314, 24 h, read-out: MIC (μg/mL) against fungi SC5314
Text: (§1) Compound library. The thiosemicarbazone derivatives Triapine and COTI-2 were purchased from Med Chem Express (MCE). The other 87 thiosemicarbazones used in this study were previously synthesized by our collaborators (1, 2). Their structures are shown in Table 1 and Table S1 to help the reader clearly understand the relationship between structure and activity.
(§2) Strains and culture conditions. Clinically derived C. albicans isolates, including G5, F5, and Gu5, were kindly provided by Professor Joachim Morschhäuser of the University of Würzburg. Other clinical C. albicans isolates were kindly donated by Professor Qingguo Qi of Shandong University and Qianfoshan Hospital of Shandong Province Other Candida strains were obtained from Jinan Central Hospital.
The zap1 mutant and its complemented strain were kindly provided by Professor Aaron P. Mitchell of Carnegie Mellon University (3). The C. neoformans strains used in this study was kindly donated by Professor Guojian Liao of Southwest University and A. fumigatus strain used in this study was provided by Professor Ling Lu of Nanjing Normal University. Before in vitro and in vivo experiments, all C. albicans strains were grown on YPD agar plates. After culturing at 30°C for 24 h, colonies of each strain were cultured in liquid YPD medium at 30°C with continuous shaking […]
(§3) Antifungal susceptibility testing. To determine in vitro antifungal activities, the microbroth dilution method was carried out in RPMI1640 medium according to the guidelines of the Clinical and Laboratory Standards Institute (4, 5). The initial concentration in RPMI1640 medium was 1 × 10^3 CFU/mL for the C. albicans and C. neoformans suspensions but 1 × 10^4 CFU/mL for A. fumigatus. The range of final drug concentrations was 0.0156–64 μg/mL. The plates were incubated at35°C for 24 […]
(§4) h (for C. albicans, C. krusei, C. tropicalis, C. parapsilosis) or 48 h (for C. neoformans, A. fumigatus). The MIC was determined based on visible growth inhibition compared with the control. All experiments were performed in duplicate. […]

C. neoformans H99 = experiment: as above; type: cell-based; details: Cryptococcus neoformans, H99, 48 h, read-out: MIC (μg/mL) against fungi H99
Text: as §1, §2
(§5) The zap1 mutant and its complemented strain were kindly provided by Professor Aaron P. Mitchell of Carnegie Mellon University (3). The C. neoformans strains used in this study was kindly donated by Professor Guojian Liao of Southwest University and A. fumigatus strain used in this study was provided by Professor Ling Lu of Nanjing Normal University. […]
as §3, §4

A. fumigatus AF293 = experiment: as above; type: cell-based; details: Aspergillus fumigatus, AF293, 48 h, read-out: MIC (μg/mL) against fungi AF293
Text: as §1, §2, §5, §3, §4

C. albicans SC5314 [2] = experiment: qPCR of genes associated with ribosome biogenesis; type: cell-based, Candida albicans; details: CPX 0.5 or 2 μg/mL 8 h; DFO 64 µg/mL 6 h; TPEN 0.05 or 0.2 μg/mL 6 h
Experimental: Determination of SOD activity. SOD activity was measured using the Superoxide Dismutase Activity Assay Kit (Njjcbio, Nanjing, China) following the manufacturer's instructions. An overnight culture of C. albicans SC5314 was adjusted to 1 × 10^7 cells/mL with RPMI1640 medium and treated with 19ak at a final concentration of 0, 0.125, 0.25, 0.5, or 1 μg/mL for 6 h. After collection by centrifugation, the cells were broken by glass beads in extraction buffer and centrifuged at 4°C. The absorbance of the supernatant of each sample was measured with a microplate reader at450 nm.
Determination of catalase (CAT) activity. CAT activity was measured by using a Catalase Assay Kit (Solarbio, Beijing, China) following the manufacturer's instructions. An overnight culture of C. albicans SC5314 was adjusted to 1 × 10^6 cells/mL with RPMI1640 medium and treated as described above for SOD activity.
The decomposition of H2O2 is directly accompanied by a decrease in absorbance at 240 nm, and the difference in absorbance per unit time (ΔA240) is a measure of […]
Quantitative real-time polymerase chain reaction (qPCR) analysis. C. albicans SC5314 cells (1 × 10^6 cells/mL) were incubated with or without 19ak (0.5,2 […]
Total RNA was extracted using the hot phenol method, and the RNA quality was analyzed using a spectrophotometer (Eppendorf, Hamburg, Germany). The RNA was converted to cDNA using a cDNA Reverse
Transcription kit (Accurate Biotechnology, Hunan, China). PCR detection based on SYBR Green was performed on an Eppendorf real-time PCR system (Eppendorf, […]
Drug resistance study. Drug resistance studies were carried out by repeatedly treating C. albicans with an antifungal agent followed by MIC determination using […]

Structure (SMILES): S=C(N/N=C1\CCCc2cccnc21)N1CCN(c2ccccn2)CC1 [COTI-2, 4-(pyridine-2-yl)-N-([(8E)-5,6,7,8-tetrahydroquinolin-8-ylidene]amino) piperazine-1-carbothioamide, reference compound]
- MIC (C. albicans SC5314 [1]): 0.5 µg/mL (≈ 1.36 µM)
- MIC (C. neoformans H99): 0.0625 µg/mL (≈ 0.171 µM)
- MIC (A. fumigatus AF293): 1 µg/mL (≈ 2.73 µM)

Structure (SMILES): Cc1cc(C2CCCCC2)n(O)c(=O)c1 [CPX, ciclopirox olamine]
- Expression of genes associated with ribosome biogenesis (qPCR) (C. albicans SC5314 [2]): no obvious effect

Structure (SMILES): C/C(=N\NC(=S)Nc1ccccc1)c1ccccn1 [Compound 19ac]
- MIC (C. albicans SC5314 [1]): 2 µg/mL (≈ 7.4 µM)
- MIC (C. neoformans H99): 0.25 µg/mL (≈ 0.925 µM)
- MIC (A. fumigatus AF293): 16 µg/mL (≈ 59.2 µM)
